# Source: publication PMC9225715, “Development of PD3 and PD3-B for PDEδ inhibition to modulate KRAS activity” (Journal of Enzyme Inhibition and Medicinal Chemistry, 2022)
# Target: T1, PDEδ (Homo sapiens, UniProt O43924)
# T1 construct: made in house; host or cells: E. coli BL21(DE3)
# Experiment: Affinity pull-down experiment with bacterial lysate overexpressing PDEδ
# Assay type: binding
# Settings: 100 µM PD3-B on NeutrAvidin resin, bacterial lysate 150 µg, DMSO control
# Method: We subsequently investigated whether PD3-B (5) specifically identifies PDEδ in the complex proteome of bacterial lysate using an affinity pull-down experiment (Figure 5). 100 µM PD3-B (5) was initially incubated with NeutrAvidin resin before incubation with bacterial lysate (150 µg) overexpressing PDEδ. For elution of the bound proteins, an elution buffer (2% SDS in PBS) was added to the resin and gently eluted at room temperature due to the noncovalent interaction between PD3-B (5) and the target protein PDEδ. The eluted samples were subjected to SDS–PAGE (18% polyacrylamide gel), and then the gels were stained with colloidal Coomassie brilliant blue solution to visualise the bound proteins. DMSO was used as a negative control. […] In addition, the intensity of the PDEδ band increased depending on the concentration of PD3-B (5) (Figure 5(B)).
# Figure 5. Affinity pull-down assay of bacterial lysate (PDEδ overexpressed) with PD3-B. NeutrAvidin resin was incubated with PD3-B (100 μM) followed by bacterial lysate (150 μg) in PBS buffer. Then, bound proteins were eluted by adding elution buffer (2% SDS in PBS) at room temperature. The eluted samples were subjected to SDS–PAGE (18% polyacrylamide gel). The gels were stained with colloidal Coomassie brilliant blue solution. (A) Colloidal CBB staining of SDS–PAGE gel. Lys: bacterial lysate, FT: flow through in step 1. […]
# T1 sequence (O43924 whole entry): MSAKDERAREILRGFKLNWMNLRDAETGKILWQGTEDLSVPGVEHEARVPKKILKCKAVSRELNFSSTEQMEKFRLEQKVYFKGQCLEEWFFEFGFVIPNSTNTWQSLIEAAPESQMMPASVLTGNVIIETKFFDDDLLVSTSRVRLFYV
smiles,measurement,value
"Cc1ccc(-c2nc3ccccc3c3c(-c4cn(CCOCCOCCOCCNC(=O)CCCC[C@H]5SC[C@@H]6NC(=O)N[C@@H]65)nn4)c4ccccn4c23)cc1 [PD3-B, 5-((3aS,4R,6aR)-2-oxohexahydro-1H-thieno[3,4-d]imidazol-4-yl)-N-(2–(2–(2-(2-(4–(6-(p-tolyl)indolizino[3,2-c]quinolin-12-yl)-1H-1,2,3-triazol-1-yl)ethoxy)ethoxy)ethoxy)ethyl)pentanamide]",Pull down of PDEδ,PDEδ (20 kDa) was only detected in PD3-B (5)
